Laboratory results as given in patent US7670991B2, “Substituted benzoylcyclohexenones and their use as herbicidal agents” (Bayer CropScience AG, priority 2001, dated 2010).

Experiments:
[1] = log P by reversed-phase HPLC (C 18), acidic range; format: physicochemical; conditions: reversed-phase HPLC column (C 18); pH=2.3
Protocol: Temperature: 43° C. (a) Mobile phases for the determination in the acidic range: 0.1% aqueous phosphoric acid, acetonitrile; linear gradient from 10% acetonitrile to 90% acetonitrile—the corresponding measurement results are marked ^a) in Table 1.

[2] = test system: weeds; test: Pre-emergence test, activity against weeds; format: in vivo; conditions: soil sprayed 24 hours after sowing, rated after three weeks
From the text: (§1) Solvent: 5 parts by weight of acetone
Seeds of the test plants are sown in normal soil.

[3] = test system: broad-leaved weeds and weed grasses; test: Post-emergence test, activity against weeds; format: in vivo; conditions: test plants 5-15 cm sprayed, rated after three weeks
From the text: as §1

[4] = test system: weeds; test: Trial in sown rice (greenhouse), activity against weeds; format: in vivo; conditions: foliar treatment at 1.5-2-leaf stage of rice, flooded, rated 4 weeks after application
From the text: as §1
Plant vessels (dimensions: 20 cm×20 cm×9 cm; surface: 1/200 ar) are filled with soil from a rice field. Seeds of rice and weeds are sown into the soil, which is kept moist. At the 1.5-2-leaf stage of rice, the dilute preparation of active compound is applied as a spray (foliar treatment).
One day after the treatment, the test vessels are flooded to a water depth of 3 cm. The test batches are then kept flooded (water depth 3 cm).

[5] = test system: rice; test: Trial in sown rice (greenhouse), tolerance by rice; format: in vivo; conditions: foliar treatment at 1.5-2-leaf stage of rice, flooded, rated 4 weeks after application
From the text: as §1
Plant vessels (dimensions: 20 cm×20 cm×9 cm; surface: 1/200 ar) are filled with soil from a rice field. Seeds of rice and weeds are sown into the soil, which is kept moist.
The test batches are then kept flooded (water depth 3 cm).

[6] = test system: crop plants; conditions: post-emergence, rated after three weeks
From the text: Emulsifier: 1 part by weight of alkylaryl polyglycol ether
After three weeks, the degree of damage to the plants is rated in % damage in comparison to the development of the untreated control.

CN1CCN(C(=O)Nc2c(Cl)ccc(C(=O)C3C(=O)CCCC3=O)c2Cl)C1=O [Example 1-1, N-[2,6-dichloro-3-[(2,6-dioxo-cyclohexyl)-carbonyl]-phenyl]-3-methyl-2-oxo-1-imidazolidinecarboxamide]
chromatographic logP [1]: 2.07 | activity against weeds [2]: strong activity | activity against broad-leaved weeds and weed grasses [3]: strong activity | activity against weeds [4]: strong activity | tolerated by rice [5]: tolerated well | tolerated by crop plants [6]: tolerated well
